From patent US20100144741A1, “ETHANOLAMINE DERIVATIVES USEFUL AS BACE INHIBITORS” (priority 2006, published 2010)

Target: T1, Human BACE (Homo sapiens, UniProt P56817)
T1 construct: Recombinant BACE (extracellular domain, expressed in baculovirus and purified using standard methods); made in house
Assay: Test 1: Inhibition of Human BACE
Format: biochemical
Details: recombinant BACE extracellular domain, fluorescence-quenched APP-derived peptide substrate, acetate buffer pH 4.5
Method: Test 1: Inhibition of Human BACE
Recombinant BACE (extracellular domain, expressed in baculovirus and purified using standard methods) at 0.1-10 nM concentration is incubated with the test compound at various concentrations for 1 hour at room temperature in 10-100 mM acetate buffer, pH 4.5, containing 0.1% CHAPS. Synthetic fluorescence-quenched peptide substrate, derived from the sequence of APP and containing a suitable fluorophore-quencher pair is added to a final concentration of 1-5 μM and the increase in fluorescence is recorded at a suitable excitation/emission wavelength in a microplate spectro-fluorimeter for 5-30 minutes in 1-minute intervals. IC50 values are calculated from percentage of inhibition of BACE-activity as a function of the test compound concentration.

T1 sequence (P56817 46-457 limits assumed): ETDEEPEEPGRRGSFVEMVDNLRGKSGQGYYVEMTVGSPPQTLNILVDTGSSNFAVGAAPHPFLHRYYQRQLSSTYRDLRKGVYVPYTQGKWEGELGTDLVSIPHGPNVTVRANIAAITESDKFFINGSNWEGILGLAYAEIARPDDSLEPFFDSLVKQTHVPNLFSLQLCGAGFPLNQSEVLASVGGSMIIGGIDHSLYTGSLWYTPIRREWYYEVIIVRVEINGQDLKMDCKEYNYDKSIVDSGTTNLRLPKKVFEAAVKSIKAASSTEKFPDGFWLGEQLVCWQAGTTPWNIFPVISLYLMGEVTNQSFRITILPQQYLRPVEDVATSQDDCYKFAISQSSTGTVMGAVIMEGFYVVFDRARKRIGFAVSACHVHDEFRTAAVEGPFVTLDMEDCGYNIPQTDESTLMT

CC(=O)N[C@@H](Cc1ccc(Nc2cc(-c3ccccc3)ncn2)cc1)[C@H](O)CNC1(c2cccc(C(C)C)c2)CC1 [Example 2, N-{(1S,2R)-2-Hydroxy-3-[1-(3-isopropyl-phenyl)-cyclopropylamino]-1-[4-(6-phenyl-pyrimidin-4-ylamino)-benzyl]-propyl}-acetamide]
IC50: 23 µM
